ChEMBL document CHEMBL3585324, “Suncheonosides A-D, Benzothioate Glycosides from a Marine-Derived Streptomyces sp” (J Nat Prod, 2015)
The source made the active and inactive calls. No cut-off for these calls is given here.

Columns and labels:
[1] = (§1) Antidiabetic activity against IDX medium-treated human bone marrow mesenchymal stem cells assessed as induction of adipogenesis at 10 uM after 6 days by oil red o/hematoxylin staining-based inverted-phase microscopic analysis relative to IDX medium-treated control; assay type: functional, Mesenchymal stem cell
[2] = Cytotoxicity against human bone marrow mesenchymal stem cells assessed as cell viability up to 100 uM after 48 hrs by WST-1 assay; assay type: cell-based
Mesenchymal stem cell [3] = assay: Antidiabetic activity against IDX medium-treated human bone marrow mesenchymal stem cells assessed as induction of adiponectin production during adipogenesis after 6 days by ELISA; assay type: functional
[4] = Antidiabetic activity against IDX medium-treated human bone marrow mesenchymal stem cells assessed as induction of adiponectin production during adipogenesis after 6 days by ELISA relative to glibenclamide; assay type: functional, Mesenchymal stem cell
Mesenchymal stem cell [5] = assay: Antidiabetic activity against IDX medium-treated human bone marrow mesenchymal stem cells assessed as induction of adiponectin production during adipogenesis at 60 to 100 uM after 6 days by ELISA relative to IDX medium-treated control; assay type: functional
Mesenchymal stem cell [6] = assay: as §1; assay type: functional

Row | SMILES | Activity [1] | Activity [2] | Activity (Mesenchymal stem cell [3]) | %max [4] | Activity (Mesenchymal stem cell [5]) | Activity (Mesenchymal stem cell [6])
1 | CSC(=O)c1c(O[C@@H]2O[C@@H](C)[C@H](O)[C@@H](O)[C@H]2O)c(C)c(O)c(C)c1C(C)C | 107% | Non-toxic | Dose-dependent effect | 44% | – | –
2 | CSC(=O)c1c(O[C@@H]2O[C@@H](C)[C@H](O)[C@@H](O)[C@H]2O)c(C)c(O[C@@H]2O[C@@H](C)[C@H](O)[C@@H](O)[C@H]2O)c(C)c1C(C)C | 75% | Non-toxic | Dose-dependent effect | 38% | – | –
3 | CSC(=O)c1c(O)c(C)c(O)c(C)c1C(C)C | – | Non-toxic | – | – | inactive | –
4 | COc1ccc(Cl)cc1C(=O)NCCc1ccc(S(=O)(=O)NC(=O)NC2CCCCC2)cc1 | – | – | Dose-dependent effect | – | – | –
5 | COc1c(C)c(O[C@@H]2O[C@@H](C)[C@H](O)[C@@H](O)[C@H]2O)c(C)c(C(C)C)c1C(=O)SC | – | – | – | – | – | Active
6 | COc1c(C)c(O[C@@H]2O[C@@H](C)[C@H](O)[C@@H](O)[C@H]2O)c(C(=O)SC)c(C(C)C)c1C | 65% | Non-toxic | Dose-dependent effect | 47% | – | –
